Assay results: ChEMBL document CHEMBL6096631, “The application of PROTACs in immune-inflammation diseases” (Bioorg Med Chem, 2024)

Tests used:
Type in all cases: cell-based
[1] = target: T1, von Hippel-Lindau disease tumor suppressor/Receptor-interacting serine/threonine-protein kinase 2 (Homo sapiens, UniProt O43353+P40337); experiment: PROTAC activity at VHL/RIPK2 in human THP-1 cells assessed as RIPK2 degradation by measuring maximal efficacy at 10 nM measured after 16 hrs by Western blot analysis relative to control
Target sequence in this assay (O43353 whole entry, looked up): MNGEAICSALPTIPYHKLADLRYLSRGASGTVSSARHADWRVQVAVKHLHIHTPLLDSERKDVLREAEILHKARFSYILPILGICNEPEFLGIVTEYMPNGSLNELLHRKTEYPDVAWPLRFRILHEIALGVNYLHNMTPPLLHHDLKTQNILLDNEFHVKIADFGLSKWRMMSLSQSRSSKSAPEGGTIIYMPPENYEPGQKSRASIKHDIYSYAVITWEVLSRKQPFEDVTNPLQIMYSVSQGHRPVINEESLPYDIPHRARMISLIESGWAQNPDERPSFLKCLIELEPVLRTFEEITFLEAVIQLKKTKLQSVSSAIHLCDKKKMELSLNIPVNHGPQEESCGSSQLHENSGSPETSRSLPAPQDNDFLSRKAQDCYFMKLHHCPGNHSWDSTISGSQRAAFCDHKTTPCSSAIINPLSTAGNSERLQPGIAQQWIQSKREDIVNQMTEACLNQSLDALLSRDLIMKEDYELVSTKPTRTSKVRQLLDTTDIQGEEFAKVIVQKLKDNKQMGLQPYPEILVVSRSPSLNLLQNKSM
Target sequence in this assay (P40337 whole entry, looked up): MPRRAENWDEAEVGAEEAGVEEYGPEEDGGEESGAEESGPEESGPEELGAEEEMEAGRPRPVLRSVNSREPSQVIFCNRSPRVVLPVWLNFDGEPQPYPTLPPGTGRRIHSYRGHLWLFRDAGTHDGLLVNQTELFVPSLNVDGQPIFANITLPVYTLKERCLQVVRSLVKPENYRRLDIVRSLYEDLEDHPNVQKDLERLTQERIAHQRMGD

[2] = target: Protein cereblon/Non-receptor tyrosine-protein kinase TYK2 (Homo sapiens, UniProt P29597+Q96SW2); experiment: PROTAC activity at CRBN/TYK2 in HEL cells assessed as TYK2 degradation incubated for 24 hrs by Western blotting analysis
[3] = target: T2, von Hippel-Lindau disease tumor suppressor/Mitogen-activated protein kinase 14 (Homo sapiens, UniProt Q16539+P40337); experiment: PROTAC activity at VHL/p38alpha in human THP-1 cells assessed as MAPK degradation incubated for 16 hrs by Western blot analysis
Target sequence in this assay (Q16539 whole entry): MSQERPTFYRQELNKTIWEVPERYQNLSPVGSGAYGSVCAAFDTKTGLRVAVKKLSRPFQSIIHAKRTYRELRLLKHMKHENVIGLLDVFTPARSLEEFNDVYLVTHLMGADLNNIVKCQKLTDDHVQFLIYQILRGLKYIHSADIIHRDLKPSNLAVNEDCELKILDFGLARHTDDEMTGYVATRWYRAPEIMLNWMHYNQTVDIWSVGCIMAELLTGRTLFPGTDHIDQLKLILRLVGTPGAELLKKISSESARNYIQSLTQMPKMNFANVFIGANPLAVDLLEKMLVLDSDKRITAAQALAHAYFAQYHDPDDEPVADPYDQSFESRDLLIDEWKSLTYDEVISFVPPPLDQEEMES
Target sequence in this assay (P40337 whole entry): as the sequence (P40337 whole entry, looked up) above

[4] = target: T2, von Hippel-Lindau disease tumor suppressor/Mitogen-activated protein kinase 14; experiment: PROTAC activity at VHL/p38alpha in human THP-1 cells assessed as induction of protein degradation by measuring maximal efficacy at 10 uM incubated for 16 hrs by Western blot analysis relative to control
Target sequence in this assay (P40337 whole entry partner): as the sequence (P40337 whole entry, looked up) above
Target sequence in this assay (Q16539 2-360 limits assumed): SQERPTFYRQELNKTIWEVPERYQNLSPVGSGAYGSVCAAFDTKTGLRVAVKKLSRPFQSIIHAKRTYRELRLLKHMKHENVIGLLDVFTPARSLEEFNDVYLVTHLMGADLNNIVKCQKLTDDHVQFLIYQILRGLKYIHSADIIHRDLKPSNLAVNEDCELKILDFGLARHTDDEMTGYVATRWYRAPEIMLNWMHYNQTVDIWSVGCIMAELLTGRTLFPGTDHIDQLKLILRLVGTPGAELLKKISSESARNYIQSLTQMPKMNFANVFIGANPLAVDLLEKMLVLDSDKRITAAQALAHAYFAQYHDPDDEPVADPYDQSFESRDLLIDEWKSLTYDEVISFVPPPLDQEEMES

[5] = target: T3, von Hippel-Lindau disease tumor suppressor/Interleukin-1 receptor-associated kinase 4 (Homo sapiens, UniProt Q9NWZ3+P40337); experiment: PROTAC activity at VHL E3 ligase/IRAK4 in human PBMC cells assessed as induction of degradation of IRAK4 incubated overnight by immunoblot analysis
Target sequence in this assay (Q9NWZ3 whole entry): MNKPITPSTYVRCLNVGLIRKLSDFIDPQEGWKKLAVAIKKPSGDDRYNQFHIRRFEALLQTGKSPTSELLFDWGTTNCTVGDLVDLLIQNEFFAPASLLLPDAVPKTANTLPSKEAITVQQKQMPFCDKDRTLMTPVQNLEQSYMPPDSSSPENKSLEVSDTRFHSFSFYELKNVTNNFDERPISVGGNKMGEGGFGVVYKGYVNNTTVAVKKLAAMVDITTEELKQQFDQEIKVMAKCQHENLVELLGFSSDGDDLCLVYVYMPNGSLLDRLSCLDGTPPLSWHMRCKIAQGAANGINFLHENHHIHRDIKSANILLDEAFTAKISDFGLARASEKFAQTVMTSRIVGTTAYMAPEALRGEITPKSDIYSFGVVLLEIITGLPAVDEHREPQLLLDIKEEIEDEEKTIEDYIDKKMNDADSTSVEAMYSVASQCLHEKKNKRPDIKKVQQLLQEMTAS
Target sequence in this assay (P40337 whole entry): as the sequence (P40337 whole entry, looked up) above

[6] = target: T4, Protein cereblon/Tyrosine-protein kinase BTK (Homo sapiens, UniProt Q06187+Q96SW2); experiment: PROTAC activity at CRBN/BTK in human Huh-7 cells assessed as protein degradation
Target sequence in this assay (Q06187 whole entry): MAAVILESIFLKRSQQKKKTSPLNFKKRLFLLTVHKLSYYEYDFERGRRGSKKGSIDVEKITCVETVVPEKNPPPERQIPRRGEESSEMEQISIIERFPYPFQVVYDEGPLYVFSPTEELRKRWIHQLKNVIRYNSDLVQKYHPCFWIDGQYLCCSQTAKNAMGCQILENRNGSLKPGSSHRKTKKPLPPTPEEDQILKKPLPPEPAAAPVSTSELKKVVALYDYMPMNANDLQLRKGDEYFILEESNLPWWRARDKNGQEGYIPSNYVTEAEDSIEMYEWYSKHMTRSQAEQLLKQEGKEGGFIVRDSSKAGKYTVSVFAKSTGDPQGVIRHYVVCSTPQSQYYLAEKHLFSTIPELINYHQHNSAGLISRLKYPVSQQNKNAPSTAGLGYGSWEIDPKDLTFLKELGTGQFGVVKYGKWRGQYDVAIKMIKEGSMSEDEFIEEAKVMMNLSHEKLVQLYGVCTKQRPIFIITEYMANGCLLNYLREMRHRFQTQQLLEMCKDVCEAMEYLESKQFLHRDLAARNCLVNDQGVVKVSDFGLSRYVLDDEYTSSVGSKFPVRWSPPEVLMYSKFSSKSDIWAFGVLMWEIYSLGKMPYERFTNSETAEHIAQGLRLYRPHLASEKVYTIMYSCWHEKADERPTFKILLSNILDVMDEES
Target sequence in this assay (Q96SW2 whole entry): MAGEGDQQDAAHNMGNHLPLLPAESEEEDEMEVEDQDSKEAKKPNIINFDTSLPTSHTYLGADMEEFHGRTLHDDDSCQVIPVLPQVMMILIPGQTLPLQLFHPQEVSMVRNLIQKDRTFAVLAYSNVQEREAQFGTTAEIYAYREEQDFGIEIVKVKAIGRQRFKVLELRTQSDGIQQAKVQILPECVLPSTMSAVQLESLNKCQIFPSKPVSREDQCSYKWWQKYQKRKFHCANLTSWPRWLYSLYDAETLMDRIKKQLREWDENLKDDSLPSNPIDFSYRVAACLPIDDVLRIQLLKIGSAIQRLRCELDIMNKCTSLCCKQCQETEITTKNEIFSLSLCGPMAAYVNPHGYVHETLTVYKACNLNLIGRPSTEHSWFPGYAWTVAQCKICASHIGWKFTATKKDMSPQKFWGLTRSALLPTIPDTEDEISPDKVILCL

[7] = target: T3, von Hippel-Lindau disease tumor suppressor/Interleukin-1 receptor-associated kinase 4; experiment: PROTAC activity at VHL E3 ligase/IRAK4 in human PBMC cells assessed as induction of degradation of IRAK4 incubated for 16 hrs by immunoblot analysis relative to control
Target sequence in this assay (P40337 whole entry, looked up): as the sequence (P40337 whole entry, looked up) above
Target sequence in this assay (Q9NWZ3 whole entry, looked up): as the sequence (Q9NWZ3 whole entry) above

[8] = target: T5, Protein cereblon/Interleukin-1 receptor-associated kinase 4 (Homo sapiens, UniProt Q9NWZ3+Q96SW2); experiment: PROTAC activity at CRBN/IRAK4 in human HEK293T cells assessed as induction of protein degradation by measuring maximal efficacy at 10 uM measured after 24 hrs by immunoblotting analysis relative to control
Target sequence in this assay (Q96SW2 whole entry, looked up): as the sequence (Q96SW2 whole entry) above
Target sequence in this assay (Q9NWZ3 whole entry, looked up): as the sequence (Q9NWZ3 whole entry) above

[9] = target: T4, Protein cereblon/Tyrosine-protein kinase BTK; experiment: PROTAC activity at CRBN/BTK in human Ramos cells assessed as induction of protein degradation by measuring maximal efficacy at 10 uM relative to control
Target sequence in this assay (Q06187 2-659 limits assumed): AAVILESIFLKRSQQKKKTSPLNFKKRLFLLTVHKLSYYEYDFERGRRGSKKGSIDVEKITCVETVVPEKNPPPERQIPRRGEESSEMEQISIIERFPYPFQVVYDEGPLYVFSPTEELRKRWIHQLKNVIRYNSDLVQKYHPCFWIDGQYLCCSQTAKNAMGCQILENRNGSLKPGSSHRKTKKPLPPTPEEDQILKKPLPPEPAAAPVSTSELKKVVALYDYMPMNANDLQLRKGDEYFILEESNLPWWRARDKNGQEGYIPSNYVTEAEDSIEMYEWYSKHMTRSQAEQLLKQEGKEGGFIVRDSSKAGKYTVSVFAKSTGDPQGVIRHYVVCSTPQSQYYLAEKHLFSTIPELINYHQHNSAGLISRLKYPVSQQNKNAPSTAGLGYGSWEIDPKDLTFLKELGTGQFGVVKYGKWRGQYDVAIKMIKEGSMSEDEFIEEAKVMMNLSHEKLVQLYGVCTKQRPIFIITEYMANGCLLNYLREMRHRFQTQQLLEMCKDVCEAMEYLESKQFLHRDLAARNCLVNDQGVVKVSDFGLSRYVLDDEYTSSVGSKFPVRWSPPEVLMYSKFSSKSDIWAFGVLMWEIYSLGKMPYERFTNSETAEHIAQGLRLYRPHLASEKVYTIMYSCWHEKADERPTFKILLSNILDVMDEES
Target sequence in this assay (Q96SW2 whole entry partner): as the sequence (Q96SW2 whole entry) above

[10] = target: T4, Protein cereblon/Tyrosine-protein kinase BTK; experiment: PROTAC activity at CRBN/BTK in human Ramos cells assessed as protein degradation
Target sequence in this assay (Q06187 whole entry): as the sequence (Q06187 whole entry) above
Target sequence in this assay (Q96SW2 whole entry): as the sequence (Q96SW2 whole entry) above

[11] = target: T1, von Hippel-Lindau disease tumor suppressor/Receptor-interacting serine/threonine-protein kinase 2; experiment: PROTAC activity at VHL/RIPK2 in human THP-1 cells assessed as RIPK2 degradation measured after 16 hrs by Western blot analysis
Target sequence in this assay (O43353 whole entry): as the sequence (O43353 whole entry, looked up) above
Target sequence in this assay (P40337 whole entry): as the sequence (P40337 whole entry, looked up) above

[12] = target: T5, Protein cereblon/Interleukin-1 receptor-associated kinase 4; experiment: PROTAC activity at CRBN/IRAK4 in human PBMC cells assessed as induction of degradation measured after 24 hrs by Immuno-blotting analysis
Target sequence in this assay (Q9NWZ3 whole entry): as the sequence (Q9NWZ3 whole entry) above
Target sequence in this assay (Q96SW2 whole entry): as the sequence (Q96SW2 whole entry) above

[13] = PROTAC activity at VHL/human p38alpha in MDA-MB-231 cells assessed as p38alpha degradation
[14] = target: T5, Protein cereblon/Interleukin-1 receptor-associated kinase 4; experiment: PROTAC activity at CRBN/IRAK4 in human KARPAS-299 cells assessed as induction of IRAK4 degradation
Target sequence in this assay (Q9NWZ3 whole entry): as the sequence (Q9NWZ3 whole entry) above
Target sequence in this assay (Q96SW2 whole entry): as the sequence (Q96SW2 whole entry) above

Work on CN[C@H](C)C(=O)N[C@@H](C(=O)N1C[C@H](NC(=O)c2cnc(N3CCN(CCCOc4cc5ncnc(Nc6n[nH]c(C)c6C)c5cc4S(=O)(=O)C(C)(C)C)CC3)cn2)C[C@@H]1C(=O)Nc1c(F)cccc1F)C(C)(C)C yielded an Emax [1] of 90%.

In the case of CNC(=O)c1cnc(Nc2ccc(C(=O)NCCCCCCCCCC(=O)N[C@H](C(=O)N3C[C@H](O)C[C@H]3C(=O)NCc3ccc(-c4scnc4C)cc3)C(C)(C)C)cn2)cc1Nc1cccc(-c2ncn(C)n2)c1OC, the DC50 [2] is reported as 14 nM.

Compound COc1cc2c(Oc3ccc(NC(=O)C4(C(=O)Nc5ccc(F)cc5)CC4)cc3F)ccnc2cc1OCCOCCOCCOc1cc(-c2scnc2C)ccc1CNC(=O)[C@@H]1C[C@@H](O)CN1C(=O)[C@H](C(C)C)N1Cc2ccccc2C1=O has a DC50 [3] of 46.2 nM and an Emax [4] of 99.4%.

For Cc1ncsc1-c1ccc(CNC(=O)[C@@H]2C[C@@H](O)CN2C(=O)[C@@H](NC(=O)COCCOCCOCCOCCOc2cc3nccc(Nc4ccc5scnc5c4)c3cc2S(=O)(=O)C(C)(C)C)C(C)(C)C)cc1, the Emax [1] was 95%.

O=C(/C=C/C(=O)Nc1ccc(NC(=O)c2ccc([N+](=O)[O-])o2)cc1)NCCCCCCNc1cccc2c1C(=O)N(C1CCC(=O)NC1=O)C2=O (centres undefined) gave a DC50 [5] of 3.2 nM.

COc1cc(C)c(Sc2cnc(NC(=O)c3ccc(N4CCN(CCCCCCCNC(=O)COc5cccc6c5C(=O)N(C5CCC(=O)NC5=O)C6=O)CC4)cc3)s2)cc1C(=O)N1CCN(C(C)=O)CC1 (centres undefined) gave a DC50 [6] of 17 nM.

In the case of CCn1nc(C)cc1C(=O)Nc1nc2cc(C(=O)NCCCCCCCCC(=O)N[C@H](C(=O)N3C[C@H](O)C[C@H]3C(=O)NCc3ccc(-c4scnc4C)cc3)C(C)(C)C)cc(OC)c2n1C/C=C/Cn1c(NC(=O)c2cc(C)nn2CC)nc2cc(C(N)=O)cc(OCCCN3CCOCC3)c21, the DC50 [5] is reported as 227 nM and the Emax [7] is reported as 91.7%.

In the case of CC(C)Nc1cc(-n2ccc3cc(C#N)cnc32)ncc1C(=O)N[C@H]1CC[C@H](C(=O)NCCOCCNC(=O)COc2cccc3c2C(=O)N(C2CCC(=O)NC2=O)C3=O)CC1 (some centres undefined), the Emax [8] is reported as 90%.

Nc1ncnc2c1c(-c1ccc(Oc3ccccc3)cc1)nn2C1CCN(C(=O)CN2CCN(CC3CN(c4ccc5c(c4)C(=O)N(C4CCC(=O)NC4=O)C5=O)C3)CC2)CC1 (centres undefined) gave an Emax [9] of 99.9% and a DC50 [10] of 3.18 nM.

For CN[C@@H](C)C(=O)N[C@H](C(=O)N1CCC[C@H]1c1nc(C(=O)c2ccc(F)cc2)cs1)C1CCN(C(=O)c2cnc(N3CCN(CCOc4cc5ncnc(Nc6n[nH]c(C)c6C)c5cc4S(=O)(=O)C(C)(C)C)CC3)nc2)CC1, the DC50 [11] was 9.4 nM and the Emax [1] was 94.3%.

CC[C@@H]1[C@H](F)C(=O)N[C@@H]1COc1ncc(C#CCN2CCC3(CC2)CCN(c2ncc(C(=O)N[C@H](C(=O)N4C[C@H](O)C[C@H]4C(=O)NCc4ccc(-c5scnc5C)cc4)C(C)(C)C)cn2)CC3)c2cc(C(N)=O)c(OC)cc12 gave a DC50 [12] of 151 nM.

With Cc1ccc(C(=O)NCCCCc2cn(CCCC(=O)NCCCCNc3cccc4c3C(=O)N(C3CCC(=O)NC3=O)C4=O)nn2)cc1-n1c(C)cc(OCc2ccc(F)cc2F)c(Br)c1=O (centres undefined) the DC50 [13] was 48.9 nM.

COc1cc2c(Oc3ccc(NC(=O)C4(C(=O)Nc5ccc(F)cc5)CC4)cc3F)ccnc2cc1OCCCCOCCCCOCC(=O)N[C@H](C(=O)N1C[C@H](O)C[C@H]1C(=O)NCc1ccc(-c2scnc2C)cc1)C(C)(C)C showed an Emax [4] of 97.4%.

Work on Cc1ccc(C(=O)NCCCCc2cn(CCCC(=O)NCCCCCCc3cccc4c3CN(C3CCC(=O)NC3=O)C4=O)nn2)cc1-n1c(C)cc(OCc2ccc(F)cc2F)c(Br)c1=O (centres undefined) yielded a DC50 [13] of 19.1 nM.

Compound O=C1CCC(N2C(=O)c3cccc(N4CCN(C(=O)C5CCN(c6ccc(NC(=O)c7cnc(Oc8ccccc8)nc7)cc6)CC5)CC4)c3C2=O)C(=O)N1 (centres undefined) has a DC50 [14] of 17.3 nM.
